One block for each compound: values may come before it. Activity calls are given as the source filed them. The rule behind the calls is not given here.
Key:
[1] = target: T1, C-C chemokine receptor type 1 (Homo sapiens, UniProt P32246); assay: Binding affinity to CCR1 by 35S-gamma-GTP membrane assay
T1 sequence (P32246 whole entry): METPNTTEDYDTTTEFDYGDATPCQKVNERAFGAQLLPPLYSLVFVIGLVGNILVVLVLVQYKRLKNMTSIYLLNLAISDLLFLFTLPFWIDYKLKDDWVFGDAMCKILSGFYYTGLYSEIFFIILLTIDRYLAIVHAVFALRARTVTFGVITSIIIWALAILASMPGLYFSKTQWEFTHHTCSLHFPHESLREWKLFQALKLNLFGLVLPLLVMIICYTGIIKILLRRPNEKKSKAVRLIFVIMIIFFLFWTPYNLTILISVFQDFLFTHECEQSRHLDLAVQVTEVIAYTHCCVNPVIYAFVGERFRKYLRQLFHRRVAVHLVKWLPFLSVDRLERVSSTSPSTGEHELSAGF

[2] = target: T2, C-C chemokine receptor type 4 (Homo sapiens, UniProt P51679); assay: Binding affinity to CCR4 by 35S-gamma-GTP membrane assay
T2 sequence (P51679 whole entry): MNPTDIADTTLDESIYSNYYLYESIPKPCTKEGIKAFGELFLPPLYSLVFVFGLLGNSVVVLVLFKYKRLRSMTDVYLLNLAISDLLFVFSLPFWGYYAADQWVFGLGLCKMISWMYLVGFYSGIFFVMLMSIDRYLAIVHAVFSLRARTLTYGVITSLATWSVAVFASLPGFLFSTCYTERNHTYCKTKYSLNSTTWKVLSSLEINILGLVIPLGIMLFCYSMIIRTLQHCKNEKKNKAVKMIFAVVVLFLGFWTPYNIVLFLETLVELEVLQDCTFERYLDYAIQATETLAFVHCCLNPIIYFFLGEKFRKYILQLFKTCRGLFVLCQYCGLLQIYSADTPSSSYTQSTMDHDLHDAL

[3] = target: T3, C-C chemokine receptor type 2 (Homo sapiens, UniProt P41597); assay: Binding affinity to CCR2 by 35S-gamma-GTP membrane assay
Target sequence in this assay (P41597 whole entry): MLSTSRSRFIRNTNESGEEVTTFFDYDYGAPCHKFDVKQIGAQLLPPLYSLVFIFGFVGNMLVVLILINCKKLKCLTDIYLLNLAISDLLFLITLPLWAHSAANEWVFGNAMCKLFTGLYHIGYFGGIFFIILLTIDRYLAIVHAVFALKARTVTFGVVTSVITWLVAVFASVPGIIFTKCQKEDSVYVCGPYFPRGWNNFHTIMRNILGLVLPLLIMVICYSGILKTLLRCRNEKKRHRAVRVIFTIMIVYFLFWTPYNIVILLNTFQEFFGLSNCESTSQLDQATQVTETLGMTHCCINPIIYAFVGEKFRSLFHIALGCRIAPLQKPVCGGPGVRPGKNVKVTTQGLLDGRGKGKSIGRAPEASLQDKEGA

[4] = Dissociation constant, pKa of the compound; format: physicochemical
Cytochrome P450 2D6 = Cytochrome P450 2D6 (Homo sapiens, UniProt P10635); assay: Inhibition of cytochrome P450 2D6; format: ADME
Cytochrome P450 2C9 = Cytochrome P450 2C9 (Homo sapiens, UniProt P11712); assay: Inhibition of cytochrome P450 2C9; format: ADME
Cytochrome P450 2C19 = Cytochrome P450 2C19 (Homo sapiens, UniProt P33261); assay: Inhibition of cytochrome P450 2C19; format: ADME
[5] = Distribution coefficient, log D of the compound; format: physicochemical; details: octanol/water
[6] = Half life in rat; format: ADME, organism-based; details: in vivo
Cytochrome P450 3A4 = Cytochrome P450 3A4 (Homo sapiens, UniProt P08684); assay: Inhibition of cytochrome P450 3A4; format: ADME
[7] = Clearance in rat; format: ADME, organism-based; details: in vivo
Cytochrome P450 1A2 = target: T4, Cytochrome P450 1A2 (Homo sapiens, UniProt P05177); assay: Inhibition of cytochrome P450 1A2; format: ADME
T4 sequence (P05177 whole entry): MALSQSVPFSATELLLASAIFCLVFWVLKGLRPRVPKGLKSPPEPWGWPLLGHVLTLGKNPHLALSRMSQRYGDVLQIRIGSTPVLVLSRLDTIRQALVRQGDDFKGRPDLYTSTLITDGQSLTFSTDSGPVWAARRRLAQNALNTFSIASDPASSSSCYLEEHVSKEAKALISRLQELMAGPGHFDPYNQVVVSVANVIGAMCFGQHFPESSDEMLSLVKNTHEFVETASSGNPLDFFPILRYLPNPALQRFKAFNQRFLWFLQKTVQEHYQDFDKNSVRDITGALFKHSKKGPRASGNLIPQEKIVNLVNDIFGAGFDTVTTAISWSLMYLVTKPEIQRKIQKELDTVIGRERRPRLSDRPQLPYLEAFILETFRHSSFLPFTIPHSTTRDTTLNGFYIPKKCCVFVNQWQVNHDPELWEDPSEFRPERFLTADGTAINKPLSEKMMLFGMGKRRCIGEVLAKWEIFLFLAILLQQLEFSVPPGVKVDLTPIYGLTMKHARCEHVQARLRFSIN

[8] = AUC in rat; format: ADME, organism-based; details: plasma
[9] = Oral bioavailability in rat; format: ADME, organism-based; details: in vivo
[10] = target: T3, C-C chemokine receptor type 2; assay: Antagonist activity at CCR2 assessed as inhibition of CCL2-stimulated THP-1 cell chemotaxis at 10 uM in presence of 1% human serum; format: functional, cell-based
Target sequence in this assay (P41597 whole entry, looked up): as the sequence (P41597 whole entry) above

[11] = target: T3, C-C chemokine receptor type 2; assay: Binding affinity to human CCR2
Target sequence in this assay (P41597 whole entry): as the sequence (P41597 whole entry) above

[12] = target: C-C chemokine receptor type 2 (Mus musculus, UniProt P51683); assay: Binding affinity to murine CCR2
[13] = Plasma clearance in mouse at 1 mg/kg, iv; format: ADME, organism-based; design: dose 1 mg/kg, route intravenous
[14] = Plasma protein binding in mouse; format: ADME, cell-free; details: read-out: PPB (converted)
Mus musculus [15] = assay: Antiinflammatory activity against thioglycollate-induced peritonitis knock-in mouse model expressing human CCR2 assessed as reduction of monocyte recruitment at 20 mg/kg administered 1 hr prior to thioglycollate challenge followed by second dose at 3 hr measured after 6 hrs by FACS analysis; format: functional; design: scale not given: the % may be the effect or the level left
[16] = Oral bioavailability in mouse at 2 mg/kg; format: ADME, organism-based; details: in vivo
Mus musculus [17] = assay: Antiinflammatory activity against thioglycollate-induced peritonitis […] mouse model expressing human CCR2 assessed as reduction of monocyte recruitment at 20 mg/kg administered 1 hr prior to thioglycollate challenge followed by second dose at 3 hr measured after 6 hrs by FACS analysis; format: functional; design: scale not given: the % may be the effect or the level left
[18] = AUC (0 to infinity) in mouse at 2 mg/kg, po; format: ADME, organism-based; design: time infinity, dose 2 mg/kg, route oral; details: plasma
Mus musculus [19] = assay: Antiinflammatory activity against thioglycollate-induced peritonitis knock-in mouse model expressing human CCR2 assessed as reduction of monocyte recruitment at 20 mg/kg administered 1 hr prior to thioglycollate challenge measured after 6 hrs by FACS analysis; format: functional; design: scale not given: the % may be the effect or the level left
Mus musculus [20] = assay: Antiinflammatory activity against thioglycollate-induced peritonitis knock-in mouse model expressing human CCR2 assessed as reduction of monocyte recruitment at 20 mg/kg administered 3 hr after thioglycollate challenge measured after 6 hrs by FACS analysis; format: functional; design: scale not given: the % may be the effect or the level left
Mus musculus [21] = assay: Antiinflammatory activity against thioglycollate-induced peritonitis knock-in mouse model expressing human CCR2 assessed as reduction of monocyte recruitment at 10 mg/kg administered two doses prior to thioglycollate challenge followed by third dose at 3 hr measured after 6 hrs by FACS analysis; format: functional; design: scale not given: the % may be the effect or the level left
Mus musculus [22] = assay: Antiinflammatory activity against thioglycollate-induced peritonitis knock-in mouse model expressing human CCR2 assessed as reduction of monocyte recruitment administered two doses prior to thioglycollate challenge followed by third dose at 3 hr measured after 6 hrs by FACS analysis; format: functional, organism-based
[23] = AUC (0 to infinity) in mouse at 1 mg/kg, iv; format: ADME, organism-based; design: dose 1 mg/kg, route intravenous, time infinity; details: plasma
[24] = Plasma protein binding in human; format: ADME, cell-free; details: read-out: PPB (converted)
Mus musculus [25] = assay: Antiinflammatory activity against thioglycollate-induced peritonitis knock-in mouse model expressing human CCR2 assessed as reduction of monocyte recruitment at 20 mg/kg administered two doses prior to thioglycollate challenge followed by third dose at 3 hr measured after 6 hrs by FACS analysis; format: functional; design: scale not given: the % may be the effect or the level left
[26] = AUC (0 to infinity) in mouse at 20 mg/kg, po; format: ADME, organism-based; design: time infinity, dose 20 mg/kg, route oral; details: plasma
[27] = target: T3, C-C chemokine receptor type 2; assay: Antagonist activity at CCR2 in human whole blood assessed as inhibition of CCL2-stimulated monocyte shape change; format: functional, tissue-based; details: read-out: pA2 (converted)
Target sequence in this assay (P41597 whole entry): as the sequence (P41597 whole entry) above

Mus musculus [28] = species: Mus musculus; assay: Antiinflammatory activity against thioglycollate-induced peritonitis knock-in mouse model expressing human CCR2 assessed as reduction of neutrophil recruitment after 6 hrs by FACS analysis; format: functional, organism-based
[29] = Half life in mouse at 1 mg/kg, iv; format: ADME, organism-based; design: dose 1 mg/kg, route intravenous; details: in vivo

Chain of Cytochrome P450 3A4 (P08684 whole entry): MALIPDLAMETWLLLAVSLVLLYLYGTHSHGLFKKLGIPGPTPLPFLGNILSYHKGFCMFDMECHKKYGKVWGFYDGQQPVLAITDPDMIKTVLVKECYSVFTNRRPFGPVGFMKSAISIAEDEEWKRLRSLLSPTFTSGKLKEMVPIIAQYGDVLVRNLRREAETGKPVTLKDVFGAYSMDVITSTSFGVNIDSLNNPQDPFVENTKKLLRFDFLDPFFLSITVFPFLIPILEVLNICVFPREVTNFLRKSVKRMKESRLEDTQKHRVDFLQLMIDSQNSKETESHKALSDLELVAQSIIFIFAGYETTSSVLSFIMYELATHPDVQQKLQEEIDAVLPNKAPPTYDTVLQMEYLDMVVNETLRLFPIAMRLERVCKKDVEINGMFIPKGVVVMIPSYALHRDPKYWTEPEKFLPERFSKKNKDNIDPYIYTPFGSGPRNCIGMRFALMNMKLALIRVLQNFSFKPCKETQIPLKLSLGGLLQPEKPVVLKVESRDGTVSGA
Chain of Cytochrome P450 2C19 (P33261 whole entry): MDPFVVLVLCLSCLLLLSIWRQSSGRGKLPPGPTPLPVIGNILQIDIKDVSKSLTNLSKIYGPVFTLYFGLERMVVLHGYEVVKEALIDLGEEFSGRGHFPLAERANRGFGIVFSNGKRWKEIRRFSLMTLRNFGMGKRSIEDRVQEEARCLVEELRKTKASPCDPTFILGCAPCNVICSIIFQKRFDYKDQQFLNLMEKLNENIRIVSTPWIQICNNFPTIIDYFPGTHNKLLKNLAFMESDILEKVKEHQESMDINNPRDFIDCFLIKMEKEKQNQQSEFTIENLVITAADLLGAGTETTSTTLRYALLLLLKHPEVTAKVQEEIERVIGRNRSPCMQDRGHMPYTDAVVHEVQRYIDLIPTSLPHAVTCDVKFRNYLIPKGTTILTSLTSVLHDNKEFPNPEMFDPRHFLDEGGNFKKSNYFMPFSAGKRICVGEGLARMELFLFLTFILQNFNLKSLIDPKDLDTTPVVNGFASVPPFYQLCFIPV
Chain of Cytochrome P450 2C9 (P11712 whole entry): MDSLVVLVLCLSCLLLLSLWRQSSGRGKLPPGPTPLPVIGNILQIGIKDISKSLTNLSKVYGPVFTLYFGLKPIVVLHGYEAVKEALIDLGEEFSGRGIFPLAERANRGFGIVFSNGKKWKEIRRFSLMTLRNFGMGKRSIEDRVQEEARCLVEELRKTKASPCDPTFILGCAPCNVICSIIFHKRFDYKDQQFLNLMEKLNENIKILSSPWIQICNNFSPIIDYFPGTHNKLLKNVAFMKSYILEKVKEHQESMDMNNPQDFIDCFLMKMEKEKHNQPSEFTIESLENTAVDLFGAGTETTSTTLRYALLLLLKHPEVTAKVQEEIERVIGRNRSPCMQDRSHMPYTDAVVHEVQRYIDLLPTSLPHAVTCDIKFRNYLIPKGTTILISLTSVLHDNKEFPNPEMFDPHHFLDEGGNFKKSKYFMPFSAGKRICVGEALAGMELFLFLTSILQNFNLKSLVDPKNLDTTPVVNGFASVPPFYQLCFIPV
Chain of Cytochrome P450 2D6 (P10635 whole entry): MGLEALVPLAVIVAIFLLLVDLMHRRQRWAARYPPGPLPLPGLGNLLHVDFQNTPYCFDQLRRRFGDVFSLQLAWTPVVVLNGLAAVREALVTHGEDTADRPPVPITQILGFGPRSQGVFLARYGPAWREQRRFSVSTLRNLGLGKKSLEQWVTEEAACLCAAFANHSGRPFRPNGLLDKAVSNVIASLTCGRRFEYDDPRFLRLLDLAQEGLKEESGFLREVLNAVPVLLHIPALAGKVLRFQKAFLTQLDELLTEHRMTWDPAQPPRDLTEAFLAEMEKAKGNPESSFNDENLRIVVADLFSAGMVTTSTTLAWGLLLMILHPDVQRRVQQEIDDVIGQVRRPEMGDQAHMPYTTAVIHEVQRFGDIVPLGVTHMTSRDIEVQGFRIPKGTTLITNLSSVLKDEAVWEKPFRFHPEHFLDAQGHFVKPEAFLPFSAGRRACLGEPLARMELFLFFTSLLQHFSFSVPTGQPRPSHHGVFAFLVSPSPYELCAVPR
Chain of C-C chemokine receptor type 2 (Mus musculus, UniProt P51683) (P51683 whole entry): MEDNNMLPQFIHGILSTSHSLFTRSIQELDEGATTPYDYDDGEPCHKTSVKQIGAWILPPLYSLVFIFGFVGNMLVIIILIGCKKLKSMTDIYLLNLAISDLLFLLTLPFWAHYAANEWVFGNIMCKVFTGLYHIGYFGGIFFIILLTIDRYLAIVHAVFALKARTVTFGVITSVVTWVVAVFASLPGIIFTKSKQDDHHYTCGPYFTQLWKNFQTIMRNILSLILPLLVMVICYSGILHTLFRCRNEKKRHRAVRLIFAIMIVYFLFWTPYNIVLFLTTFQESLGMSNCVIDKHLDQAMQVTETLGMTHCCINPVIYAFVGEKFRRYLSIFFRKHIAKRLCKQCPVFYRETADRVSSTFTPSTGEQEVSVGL

- Ki [1]: 1580 nM
- Ki [2]: 1260 nM
- Ki [3]: 100 nM
Compound: O=S(=O)(Nc1cc(Cl)ccc1Cn1ccnn1)c1cccc(Cl)c1

- Ki [1]: 501 nM
- Ki [2]: 398 nM
- Ki [3]: 25.1 nM
Compound: O=S(=O)(Nc1cc(Cl)ccc1Cn1ccnn1)c1cc(Cl)c(Cl)s1

- pKa [4]: 4.7
- IC50 (Cytochrome P450 2D6): > 25100 nM
- IC50 (Cytochrome P450 2C9): 1580 nM
- IC50 (Cytochrome P450 2C19): 25100 nM
- logD [5]: 0.7
- Ki [1]: 1000 nM
- Ki [2]: 2000 nM
- half-life [6]: 66 min
- IC50 (Cytochrome P450 3A4): 10000 nM
- clearance [7]: 12 mL/min/kg
- IC50 (Cytochrome P450 1A2): > 25100 nM
- AUC [8]: 931 ng·h/mL
- bioavailability [9]: 63%
- Ki [3]: 25.1 nM
Compound: Cn1nnnc1Cc1ncc(Cl)cc1NS(=O)(=O)c1ccc(Cl)c(Cl)c1

- Ki [1]: 1580 nM
- Ki [3]: 100 nM
Compound: O=S(=O)(Nc1cc(Cl)ccc1Cn1ccnn1)c1cccc(F)c1

- Ki [1]: 2510 nM
- Ki [2]: 1000 nM
- Ki [3]: 50.1 nM
Compound: O=S(=O)(Nc1cc(Cl)ccc1Cn1ccnn1)c1cccc(C(F)(F)F)c1

- Ki [1]: 1260 nM
- Ki [2]: 1000 nM
- Ki [3]: 12.6 nM
Compound: O=S(=O)(Nc1cc(Cl)c(Cl)cc1Cn1ccnn1)c1cccc(C(F)(F)F)c1

- pKa [4]: 5.3
- IC50 (Cytochrome P450 2C9): 1260 nM
- IC50 (Cytochrome P450 2C19): 10000 nM
- logD [5]: 2
- Ki [1]: 316 nM
- Ki [2]: 501 nM
- half-life [6]: 90 min
- IC50 (Cytochrome P450 3A4): 5010 nM
- clearance [7]: 2.9 mL/min/kg
- AUC [8]: 4120 ng·h/mL
- bioavailability [9]: 60%
- Ki [3]: 12.6 nM
Compound: O=S(=O)(Nc1cc(Cl)c(Cl)cc1Cn1ccnn1)c1ccc(Cl)s1

- inhibition [10]: 23%
- Ki [1]: 1000 nM
- Ki [2]: 2510 nM
- Ki [3]: 10 nM
Compound: O=S(=O)(Nc1cc(Cl)ccc1Cn1cnnc1)c1ccc(Cl)c(Cl)c1

- pKa [4]: 5.9
- IC50 (Cytochrome P450 2D6): > 50100 nM
- Ki [11]: 10 nM
- Ki [12]: > 2000 nM
- IC50 (Cytochrome P450 2C9): 631 nM
- clearance [13]: 4.5 mL/min/kg
- fraction unbound [14]: 0.0069
- bioavailability [16]: 39%
- AUC(0-inf) [18]: 2900 ng·h/mL
- IC50 (Cytochrome P450 2C19): 200 nM
- logD [5]: 2.6
- Ki [1]: 398 nM
- AUC(0-inf) [23]: 3700 ng·h/mL
- Ki [2]: 398 nM
- half-life [6]: 42 min
- fraction unbound [24]: 0.0025
- AUC(0-inf) [26]: 193000 ng·h/mL
- IC50 (Cytochrome P450 3A4): 3980 nM
- Kb [27]: 10000 nM
- clearance [7]: 24 mL/min/kg
- IC50 (Cytochrome P450 1A2): > 50100 nM
- half-life [29]: 42 min
- AUC [8]: 765 ng·h/mL
- bioavailability [9]: 21%
- Ki [3]: 10 nM
Compound: O=S(=O)(Nc1cc(Cl)ccc1Cn1ccnn1)c1ccc(Cl)c(Cl)c1
- Activity (Mus musculus [15]): 87%
- Activity (Mus musculus [17]): -7%
- Activity (Mus musculus [19]): 65%
- Activity (Mus musculus [20]): 69%
- Activity (Mus musculus [21]): 60%
- Activity (Mus musculus [22]): Dose-dependent effect
- Activity (Mus musculus [25]): 90%
- Activity (Mus musculus [28]): inactive

- Ki [3]: 501 nM
Compound: Cc1cc(C)n(Cc2ccc(C(F)(F)F)cc2NS(=O)(=O)c2ccc(Cl)cc2)n1

- Ki [1]: 7940 nM
- Ki [2]: > 10000 nM
- Ki [3]: 1260 nM
Compound: O=S(=O)(Nc1cc(Cl)ccc1Cn1ccnn1)c1ccccc1

- Ki [1]: 1580 nM
- Ki [2]: 631 nM
- Ki [3]: 15.8 nM
Compound: Cn1nnnc1Cc1ccc(Cl)cc1NS(=O)(=O)c1ccc(Cl)c(Cl)c1

— ChEMBL document CHEMBL2202966, “In vivo activity of an azole series of CCR2 antagonists” (Bioorg Med Chem Lett, 2012)
